Measurements reported in patent US20070049593A1 (priority 2004, published 2007).
Structures can show the parent of a compound that is named as a salt.

Target: T1, HCV polymerase (Hepatitis C virus genotype 1b, UniProt P26663)
T1 construct: a region encoding NS5B (J Virol 1991 March, 65(3), 1105-13, 544 amino acids after deletion of 47 amino acids on the C-terminal); 6xHis (C); made in house; host or cells: Escherichia coli
Assay: biochemical
Set-up: species or system HCV BK strain
Method in brief: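 His-tagged NS5B (BK strain, 47-aa C-terminal deletion, E. coli-expressed) at 0.5 μg/ml copied 5 μg/ml run-off RNA bearing the HCV 3′ UTR with 2 μM UTP plus [3H]UTP, 50 μM ATP/GTP, in pH 7.5 Tris with 5 mM MgCl2, 25 °C, 90 min. TCA-precipitated RNA was counted and IC50 calculated.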

T1 sequence (P26663 2420-2963): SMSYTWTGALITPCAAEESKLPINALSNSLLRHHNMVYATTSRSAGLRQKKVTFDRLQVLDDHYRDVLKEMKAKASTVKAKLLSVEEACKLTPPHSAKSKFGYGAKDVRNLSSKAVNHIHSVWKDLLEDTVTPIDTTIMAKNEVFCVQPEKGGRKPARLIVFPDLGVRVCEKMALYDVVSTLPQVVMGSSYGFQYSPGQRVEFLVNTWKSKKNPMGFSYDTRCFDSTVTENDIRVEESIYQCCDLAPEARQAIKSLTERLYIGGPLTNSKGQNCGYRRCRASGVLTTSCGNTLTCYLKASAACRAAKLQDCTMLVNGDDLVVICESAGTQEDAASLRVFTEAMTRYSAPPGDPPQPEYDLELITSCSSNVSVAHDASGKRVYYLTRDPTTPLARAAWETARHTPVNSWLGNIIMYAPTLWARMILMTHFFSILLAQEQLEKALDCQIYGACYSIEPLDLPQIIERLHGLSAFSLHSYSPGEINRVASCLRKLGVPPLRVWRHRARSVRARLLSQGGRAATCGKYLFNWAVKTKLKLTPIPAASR

| SMILES | IC50 [nM] |
| --- | --- |
| CC1CCCN(CCN2CCn3c(c(C4CCCCC4)c4ccc(C(=O)O)cc43)-c3ccc(Cl)cc32)C1 (stereo not drawn) [Example 1-214, 3-chloro-13-cyclohexyl-5-[2-(3-methylpiperidin-1-yl)ethyl]-6,7-dihydro-5H-benzo[5,6][1,4]diazepino[7,1-a]indole-10-carboxylic acid dihydrochloride] | < 100 |
| CC1CCN(CCN2CCn3c(c(C4CCCCC4)c4ccc(C(=O)O)cc43)-c3ccc(Cl)cc32)CC1 [Example 1-215, 3-chloro-13-cyclohexyl-5-[2-(4-methylpiperidin-1-yl)ethyl]-6,7-dihydro-5H-benzo[5,6][1,4]diazepino[7,1-a]indole-10-carboxylic acid dihydrochloride] | < 100 |
| O=C(O)c1ccc2c(C3CCCCC3)c3n(c2c1)CCN(CCN1CCCC1)c1cc(Cl)ccc1-3 [Example 1-216, 3-chloro-13-cyclohexyl-5-[2-(pyrrolidin-1-yl)ethyl]-6,7-dihydro-5H-benzo[5,6][1,4]diazepino[7,1-a]indole-10-carboxylic acid dihydrochloride] | < 100 |
| O=C(O)c1ccc2c(C3CCCCC3)c3n(c2c1)CCN(CCN1CCCCCC1)c1cc(Cl)ccc1-3 [Example 1-217, 5-[2-(azepan-1-yl)ethyl]-3-chloro-13-cyclohexyl-6,7-dihydro-5H-benzo[5,6][1,4]diazepino[7,1-a]indole-10-carboxylic acid dihydrochloride] | < 100 |
| Cc1ccc2c(c1)N(CCN1CCCCCC1)CCn1c-2c(C2CCCCC2)c2ccc(C(=O)O)cc21 [Example 1-218, 5-[2-(azepan-1-yl)ethyl]-13-cyclohexyl-3-methyl-6,7-dihydro-5H-benzo[5,6][1,4]diazepino[7,1-a]indole-10-carboxylic acid dihydrochloride] | < 100 |
| O=C(O)c1ccc2c(C3CCCCC3)c3n(c2c1)CCN(CCC1CCCNC1)c1cc(Cl)ccc1-3 (stereo not drawn) [Example 1-219, 3-chloro-13-cyclohexyl-5-[2-(piperidin-3-yl)ethyl]-6,7-dihydro-5H-benzo[5,6][1,4]diazepino[7,1-a]indole-10-carboxylic acid dihydrochloride] | < 100 |
| CC1COCCN1CCN1CCn2c(c(C3CCCCC3)c3ccc(C(=O)O)cc32)-c2ccccc21 (stereo not drawn) [Example 1-220, 13-cyclohexyl-5-[2-(3-methylmorpholin-4-yl)ethyl]-6,7-dihydro-5H-benzo[5,6][1,4]diazepino[7,1-a]indole-10-carboxylic acid dihydrochloride] | < 100 |
| CN1CCCC(CCN2CCn3c(c(C4CCCCC4)c4ccc(C(=O)O)cc43)-c3ccc(Cl)cc32)C1 (stereo not drawn) [Example 1-221, 3-chloro-13-cyclohexyl-5-[2-(1-methylpiperidin-3-yl)ethyl]-6,7-dihydro-5H-benzo[5,6][1,4]diazepino[7,1-a]indole-10-carboxylic acid dihydrochloride] | < 100 |
| CN(C)CCN(C)C(=O)CN1CCn2c(c(C3CCCCC3)c3ccc(C(=O)O)cc32)-c2ccccc21 [Example 1-222, 13-cyclohexyl-5-{[N-(2-dimethylaminoethyl)-N-methylcarbamoyl]methyl}-6,7-dihydro-5H-benzo[5,6][1,4]diazepino[7,1-a]indole-10-carboxylic acid dihydrochloride] | < 100 |
| CN(C)CCN(C)CCN1CCn2c(c(C3CCCCC3)c3ccc(C(=O)O)cc32)-c2ccccc21 [Example 1-223, 13-cyclohexyl-5-{2-[N-(2-dimethylaminoethyl)-N-methylamino]ethyl}-6,7-dihydro-5H-benzo[5,6][1,4]diazepino[7,1-a]indole-10-carboxylic acid trihydrochloride] | < 100 |
| CCS(=O)(=O)N1CCN(CCN2CCn3c(c(C4CCCCC4)c4ccc(C(=O)O)cc43)-c3ccccc32)CC1 [Example 1-224, 13-cyclohexyl-5-[2-(4-ethanesulfonylpiperazin-1-yl)ethyl]-6,7-dihydro-5H-benzo[5,6][1,4]diazepino[7,1-a]indole-10-carboxylic acid dihydrochloride] | < 100 |
| CCC(=O)N1CCN(CCN2CCn3c(c(C4CCCCC4)c4ccc(C(=O)O)cc43)-c3ccccc32)CC1 [Example 1-225, 13-cyclohexyl-5-[2-(4-propionylpiperazin-1-yl)ethyl]-6,7-dihydro-5H-benzo[5,6][1,4]diazepino[7,1-a]indole-10-carboxylic acid dihydrochloride] | < 100 |
| CC(C)OC(=O)N1CCN(CCN2CCn3c(c(C4CCCCC4)c4ccc(C(=O)O)cc43)-c3ccccc32)CC1 [Example 1-226, 13-cyclohexyl-5-[2-(4-isopropoxycarbonylpiperazin-1-yl)ethyl]-6,7-dihydro-5H-benzo[5,6][1,4]diazepino[7,1-a]indole-10-carboxylic acid dihydrochloride] | < 100 |
| CC(C)Oc1ccc2c(c1)N(CCN1CCCCC1)CCn1c-2c(C2CCCCC2)c2ccc(C(=O)O)cc21 [Example 1-227, 13-cyclohexyl-3-isopropoxy-5-[2-(piperidin-1-yl)ethyl]-6,7-dihydro-5H-benzo[5,6][1,4]diazepino[7,1-a]indole-10-carboxylic acid dihydrochloride] | < 100 |
| CN(C)CCN1CCn2c(c(C3CCCCC3)c3ccc(C(=O)O)cc32)-c2ccc(OCc3ccccc3)cc21 [Example 1-228, 3-benzyloxy-13-cyclohexyl-5-(2-dimethylaminoethyl)-6,7-dihydro-5H-benzo[5,6][1,4]diazepino[7,1-a]indole-10-carboxylic acid dihydrochloride] | < 100 |
| CC(C)N1CCCC(CCN2CCn3c(c(C4CCCCC4)c4ccc(C(=O)O)cc43)-c3ccc(Cl)cc32)C1 (stereo not drawn) [Example 1-229, 3-chloro-13-cyclohexyl-5-[2-(1-isopropylpiperidin-3-yl)ethyl]-6,7-dihydro-5H-benzo[5,6][1,4]diazepino[7,1-a]indole-10-carboxylic acid dihydrochloride] | < 100 |
| CCCN1CCCC(CCN2CCn3c(c(C4CCCCC4)c4ccc(C(=O)O)cc43)-c3ccc(Cl)cc32)C1 (stereo not drawn) [Example 1-230, 3-chloro-13-cyclohexyl-5-[2-(1-propylpiperidin-3-yl)ethyl]-6,7-dihydro-5H-benzo[5,6][1,4]diazepino[7,1-a]indole-10-carboxylic acid dihydrochloride] | < 100 |
| CN(CCN1CCn2c(c(C3CCCCC3)c3ccc(C(=O)O)cc32)-c2ccccc21)C1CCCCC1 [Example 1-231, 13-cyclohexyl-5-[2-(N-cyclohexyl-N-methylamino)ethyl]-6,7-dihydro-5H-benzo[5,6][1,4]diazepino[7,1-a]indole-10-carboxylic acid] | < 100 |
| CS(=O)(=O)N1CCCN(CCN2CCn3c(c(C4CCCCC4)c4ccc(C(=O)O)cc43)-c3ccccc32)CC1 [Example 1-232, 13-cyclohexyl-5-[2-(4-methanesulfonyl-1,4-diazepan-1-yl)ethyl]-6,7-dihydro-5H-benzo[5,6][1,4]diazepino[7,1-a]indole-10-carboxylic acid dihydrochloride] | < 100 |
| COC(=O)N1CCCN(CCN2CCn3c(c(C4CCCCC4)c4ccc(C(=O)O)cc43)-c3ccccc32)CC1 [Example 1-233, 13-cyclohexyl-5-[2-(4-methoxycarbonyl-1,4-diazepan-1-yl)ethyl]-6,7-dihydro-5H-benzo[5,6][1,4]diazepino[7,1-a]indole-10-carboxylic acid dihydrochloride] | < 100 |
| O=C(O)c1ccc2c(C3CCCCC3)c3n(c2c1)CCN(CCN1CCCCCC1)c1cc(F)ccc1-3 [Example 1-234, 5-[2-(azepan-1-yl)ethyl]-13-cyclohexyl-3-fluoro-6,7-dihydro-5H-benzo[5,6][1,4]diazepino[7,1-a]indole-10-carboxylic acid dihydrochloride] | < 100 |
| O=C(O)c1ccc2c(C3CCCCC3)c3n(c2c1)CC(=O)N(CCN1CCCCC1)c1ccccc1-3 [Example 1-235, 13-cyclohexyl-6-oxo-5-[2-(piperidin-1-yl)ethyl]-6,7-dihydro-5H-benzo[5,6][1,4]diazepino[7,1-a]indole-10-carboxylic acid monohydrochloride] | < 100 |
| COC(=O)N(C)CCN(C)CCN1CCn2c(c(C3CCCCC3)c3ccc(C(=O)O)cc32)-c2ccccc21 [Example 1-236, 13-cyclohexyl-5-(2-{N-[2-(N-methoxycarbonyl-N-methylamino)ethyl]-N-methylamino}ethyl)-6,7-dihydro-5H-benzo[5,6][1,4]diazepino[7,1-a]indole-10-carboxylic acid dihydrochloride] | < 100 |
| CC1CCN(CCN2CCn3c(c(C4CCCCC4)c4ccc(C(=O)O)cc43)-c3ccccc32)C1 (stereo not drawn) [Example 1-237, 13-cyclohexyl-5-[2-(3-methylpyrrolidin-1-yl)ethyl]-6,7-dihydro-5H-benzo[5,6][1,4]diazepino[7,1-a]indole-10-carboxylic acid dihydrochloride] | < 100 |
| COC1CCN(CCN2CCn3c(c(C4CCCCC4)c4ccc(C(=O)O)cc43)-c3ccccc32)C1 (stereo not drawn) [Example 1-238, 13-cyclohexyl-5-[2-(3-methoxypyrrolidin-1-yl)ethyl]-6,7-dihydro-5H-benzo[5,6][1,4]diazepino[7,1-a]indole-10-carboxylic acid dihydrochloride] | < 100 |
| CCN1CCCN(C(=O)CN2CCn3c(c(C4CCCCC4)c4ccc(C(=O)O)cc43)-c3ccccc32)CC1 [Example 1-239, 13-cyclohexyl-5-[2-(4-ethyl-1,4-diazepan-1-yl)-2-oxoethyl]-6,7-dihydro-5H-benzo[5,6][1,4]diazepino[7,1-a]indole-10-carboxylic acid dihydrochloride] | < 100 |
| CC(C)N1CCC(CCN2CCn3c(c(C4CCCCC4)c4ccc(C(=O)O)cc43)-c3ccc(Cl)cc32)CC1 [Example 1-240, 3-chloro-13-cyclohexyl-5-[2-(1-isopropylpiperidin-4-yl)ethyl]-6,7-dihydro-5H-benzo[5,6][1,4]diazepino[7,1-a]indole-10-carboxylic acid dihydrochloride] | < 100 |
